# From PubChem BioAssay (NCI)
#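 Here, GI50 denotes the concentration required for 50% inhibition of growth. TGI denotes the concentration required for complete inhibition of growth.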
# How the values were obtained:
# Test in all cases: growth of human tumour cells (NCI), 384-well format
# MDA-MB-435 melanoma = system: MDA-MB-435 melanoma
# SK-OV-3 ovarian = system: SK-OV-3 ovarian
# U251 glioblastoma = system: U251 glioblastoma
# SNB-75 CNS = system: SNB-75 CNS
# NCI-H522 lung = system: NCI-H522 lung
# CCRF-CEM leukemia = system: CCRF-CEM leukemia
# SR leukemia = system: SR leukemia
# COLO 205 colon = system: COLO 205 colon
# DU-145 prostate = system: DU-145 prostate
# SN12C renal = system: SN12C renal
# ACHN renal = system: ACHN renal
# SF-295 CNS = system: SF-295 CNS
# UO-31 renal = system: UO-31 renal
# MALME-3M melanoma = system: MALME-3M melanoma
# HOP-62 NSCLC = system: HOP-62 NSCLC
# T-47D breast = system: T-47D breast
# PC-3 prostate = system: PC-3 prostate
# UACC-257 melanoma = system: UACC-257 melanoma
# HCT-15 colon = system: HCT-15 colon
# OVCAR-3 ovarian = system: OVCAR-3 ovarian
# BT-549 breast = system: BT-549 breast
# M14 melanoma = system: M14 melanoma
# HOP-92 NSCLC = system: HOP-92 NSCLC
# MCF7 breast = system: MCF7 breast
# OVCAR-8 ovarian = system: OVCAR-8 ovarian
# IGROV1 ovarian = system: IGROV1 ovarian
# TK-10 renal = system: TK-10 renal
# OVCAR-5 ovarian = system: OVCAR-5 ovarian
# KM12 colon = system: KM12 colon
# NCI-H23 lung = system: NCI-H23 lung
# NCI-H322M lung = system: NCI-H322M lung
# SF-268 CNS = system: SF-268 CNS
# NCI-H226 lung = system: NCI-H226 lung
# LOX IMVI melanoma = system: LOX IMVI melanoma
# RPMI-8226 leukemia = system: RPMI-8226 leukemia
# OVCAR-4 ovarian = system: OVCAR-4 ovarian
# SNB-19 CNS = system: SNB-19 CNS
# K-562 leukemia = system: K-562 leukemia
# SK-MEL-28 melanoma = system: SK-MEL-28 melanoma
# HCT-116 colon = system: HCT-116 colon
# SW-620 colon = system: SW-620 colon
# NCI-H460 NSCLC = system: NCI-H460 NSCLC
# SF-539 CNS = system: SF-539 CNS
# RXF 393 renal = system: RXF 393 renal
# A498 renal = system: A498 renal
# SK-MEL-5 melanoma = system: SK-MEL-5 melanoma
# CAKI-1 renal = system: CAKI-1 renal
# EKVX NSCLC = system: EKVX NSCLC
structure (smiles),measurement,setting,value
NC(=O)c1cccc2cn(-c3ccc([C@@H]4CCCNC4)cc3)nc12,GI50,MDA-MB-435 melanoma,17.5 µM
same,TGI,MDA-MB-435 melanoma,33.6 µM
same,GI50,SK-OV-3 ovarian,11.7 µM
same,TGI,SK-OV-3 ovarian,28.8 µM
same,GI50,U251 glioblastoma,12.2 µM
same,TGI,U251 glioblastoma,25.1 µM
same,GI50,SNB-75 CNS,4.68 µM
same,TGI,SNB-75 CNS,16.5 µM
same,GI50,NCI-H522 lung,15.1 µM
same,TGI,NCI-H522 lung,29 µM
same,GI50,CCRF-CEM leukemia,1.83 µM
same,TGI,CCRF-CEM leukemia,3.71 µM
same,GI50,SR leukemia,0.805 µM
same,TGI,SR leukemia,2.18 µM
same,GI50,COLO 205 colon,11 µM
same,TGI,COLO 205 colon,23.2 µM
same,GI50,DU-145 prostate,4.89 µM
same,TGI,DU-145 prostate,16.1 µM
same,TGI,SN12C renal,> 43.4 µM
same,GI50,ACHN renal,9.72 µM
same,TGI,ACHN renal,21.7 µM
same,GI50,SF-295 CNS,2.64 µM
same,TGI,SF-295 CNS,7.79 µM
same,GI50,UO-31 renal,14 µM
same,TGI,UO-31 renal,27.7 µM
same,GI50,MALME-3M melanoma,12.8 µM
same,TGI,MALME-3M melanoma,25.6 µM
same,GI50,HOP-62 NSCLC,3.12 µM
same,TGI,HOP-62 NSCLC,11.3 µM
same,GI50,T-47D breast,12.6 µM
same,TGI,T-47D breast,26.2 µM
same,GI50,PC-3 prostate,15.4 µM
same,TGI,PC-3 prostate,46.6 µM
same,GI50,UACC-257 melanoma,16.8 µM
same,TGI,UACC-257 melanoma,30.6 µM
same,GI50,HCT-15 colon,11.9 µM
same,TGI,HCT-15 colon,24.8 µM
same,GI50,OVCAR-3 ovarian,18.3 µM
same,TGI,OVCAR-3 ovarian,33 µM
same,GI50,BT-549 breast,9.95 µM
same,TGI,BT-549 breast,22 µM
same,GI50,M14 melanoma,4.68 µM
same,TGI,M14 melanoma,15.8 µM
same,GI50,HOP-92 NSCLC,14.3 µM
same,TGI,HOP-92 NSCLC,28.3 µM
same,GI50,MCF7 breast,6.48 µM
same,TGI,MCF7 breast,18.8 µM
same,GI50,OVCAR-8 ovarian,7.24 µM
same,TGI,OVCAR-8 ovarian,20.6 µM
same,GI50,IGROV1 ovarian,12.9 µM
same,TGI,IGROV1 ovarian,27.2 µM
same,GI50,TK-10 renal,16.2 µM
same,TGI,TK-10 renal,34 µM
same,GI50,OVCAR-5 ovarian,24 µM
same,TGI,OVCAR-5 ovarian,59.6 µM
same,GI50,KM12 colon,14.7 µM
same,TGI,KM12 colon,28.9 µM
same,GI50,NCI-H23 lung,5.93 µM
same,TGI,NCI-H23 lung,19.6 µM
same,GI50,NCI-H322M lung,18.2 µM
same,TGI,NCI-H322M lung,34.1 µM
same,GI50,SF-268 CNS,5.24 µM
same,TGI,SF-268 CNS,20.1 µM
same,GI50,NCI-H226 lung,12.5 µM
same,TGI,NCI-H226 lung,25.2 µM
same,GI50,LOX IMVI melanoma,7.47 µM
same,TGI,LOX IMVI melanoma,19.9 µM
same,GI50,RPMI-8226 leukemia,9.26 µM
same,TGI,RPMI-8226 leukemia,23.1 µM
same,GI50,OVCAR-4 ovarian,25.2 µM
same,TGI,OVCAR-4 ovarian,44.5 µM
same,GI50,SNB-19 CNS,18.3 µM
same,TGI,SNB-19 CNS,> 54.2 µM
same,GI50,K-562 leukemia,10.1 µM
same,TGI,K-562 leukemia,21.8 µM
same,GI50,SK-MEL-28 melanoma,16.2 µM
same,TGI,SK-MEL-28 melanoma,29.9 µM
same,GI50,HCT-116 colon,4.73 µM
same,TGI,HCT-116 colon,18.3 µM
same,GI50,SW-620 colon,6.05 µM
same,TGI,SW-620 colon,22.4 µM
same,GI50,NCI-H460 NSCLC,3.06 µM
same,TGI,NCI-H460 NSCLC,13.4 µM
same,GI50,SF-539 CNS,5.66 µM
same,TGI,SF-539 CNS,18.2 µM
same,GI50,RXF 393 renal,16.7 µM
same,TGI,RXF 393 renal,30.5 µM
same,GI50,A498 renal,16.7 µM
same,TGI,A498 renal,30.5 µM
same,GI50,SK-MEL-5 melanoma,7.81 µM
same,TGI,SK-MEL-5 melanoma,19.4 µM
same,GI50,CAKI-1 renal,11.1 µM
same,TGI,CAKI-1 renal,23.3 µM
same,GI50,EKVX NSCLC,17.7 µM
same,TGI,EKVX NSCLC,34.7 µM
